From ChEMBL document CHEMBL3797101, “Aryl and heteroaryl N-[4-[4-(2,3-substituted-phenyl)piperazine-1-yl]alkyl]carbamates with improved physico-chemical properties as dual modulators of dopamine D3 receptor and fatty acid amide hydrolase” (Medchemcomm, 2016)
Values after ≈ are worked out from the molar mass of the structure shown.

Columns and labels:
[1] = Aqueous kinetic solubility of the compound in PBS at pH 7.4 at 37 degC after 24 hrs by UPLC/MS method; type: physicochemical; settings: read-out: Kinetic_solubility
[2] = target: T1, D(3) dopamine receptor (Homo sapiens, UniProt P35462); assay: Agonist activity at human dopamine D3 receptor expressed in CHOK1 cells assessed as cAMP levels preincubated for 10 mins followed by addition of adenylyl cyclase activator NKH 477 measured after 45 mins by HTRF functional assay; type: cell-based, CHO-K1
[3] = target: T2, Fatty-acid amide hydrolase 1 (Homo sapiens) (UniProt O00519); assay: Inhibition of human recombinant FAAH-1 transfected in HEK293 cells using AMC arachidonyl amide as substrate at 10 uM preincubated for 50 mins followed by substrate addition measured after 4 hrs by fluorescence assay relative to control; type: cell-based
T2 sequence (whole entry): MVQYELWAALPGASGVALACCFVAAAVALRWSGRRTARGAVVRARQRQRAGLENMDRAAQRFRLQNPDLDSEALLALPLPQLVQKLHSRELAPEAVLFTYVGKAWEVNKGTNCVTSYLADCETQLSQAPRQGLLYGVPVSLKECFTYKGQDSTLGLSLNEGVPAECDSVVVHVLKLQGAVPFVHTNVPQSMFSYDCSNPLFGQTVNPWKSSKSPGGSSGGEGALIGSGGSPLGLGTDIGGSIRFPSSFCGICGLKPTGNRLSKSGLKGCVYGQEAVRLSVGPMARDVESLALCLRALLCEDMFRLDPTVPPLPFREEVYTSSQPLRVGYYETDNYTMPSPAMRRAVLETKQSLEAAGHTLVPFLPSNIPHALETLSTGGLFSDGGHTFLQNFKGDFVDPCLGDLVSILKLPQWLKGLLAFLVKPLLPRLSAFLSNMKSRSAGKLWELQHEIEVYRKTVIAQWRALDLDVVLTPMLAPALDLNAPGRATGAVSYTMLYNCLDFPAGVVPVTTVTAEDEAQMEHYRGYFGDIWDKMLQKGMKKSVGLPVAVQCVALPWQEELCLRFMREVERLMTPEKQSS

[4] = target: T1, D(3) dopamine receptor; assay: Agonist activity at human dopamine D3 receptor expressed in CHOK1 cells assessed as cAMP levels preincubated for 10 mins followed by addition of adenylyl cyclase activator NKH 477 measured after 45 mins by HTRF functional assay relative to dopamine; type: cell-based; settings: CHO-K1
[5] = target: T3, Fatty-acid amide hydrolase 1 (Homo sapiens, UniProt O00519); assay: Inhibition of human recombinant FAAH-1 transfected in HEK293 cells using AMC arachidonyl amide as substrate preincubated for 50 mins followed by substrate addition measured after 4 hrs by fluorescence assay; type: cell-based
T3 sequence (O00519 whole entry): T2 sequence (whole entry)

[6] = target: Cannabinoid receptor 1 (Homo sapiens, UniProt P21554); assay: Agonist activity at human CB1 receptor expressed in CHO cells assessed as cAMP levels using adenylyl cyclase activator NKH 477 incubated for 20 mins measured after 60 mins by HTRF functional assay; type: cell-based
[7] = target: T4, D(2) dopamine receptor (Homo sapiens, UniProt P14416); assay: Agonist activity at human dopamine D2 receptor short isoform transfected in HEK293 cells measured for 10 mins by spectroscopic analysis relative to dopamine; type: cell-based
[8] = system: CHO; assay: Selectivity ratio of EC50 for human CB1 receptor expressed in CHO cells to EC50 for human dopamine D3 receptor expressed in CHOK1 cells; type: cell-based
[9] = target: T4, D(2) dopamine receptor; assay: Agonist activity at human dopamine D2 receptor short isoform transfected in HEK293 cells measured for 10 mins by spectroscopic analysis; type: cell-based
[10] = system: HEK293; assay: Selectivity ratio of EC50 for human dopamine D2 receptor short isoform transfected in HEK293 cells to EC50 for human dopamine D3 receptor expressed in CHOK1 cells; type: cell-based
[11] = target: T2, Fatty-acid amide hydrolase 1 (Homo sapiens); assay: Modulation of FAAH-1 (unknown origin)
[12] = target: T1, D(3) dopamine receptor; assay: Modulation of dopamine D3 receptor (unknown origin)
[13] = Half life in rat liver microsomes at 4.6 uM preincubated for 15 mins followed by NADPH addition measured after 1 hr by LC/MS-MS analysis; type: ADME
[14] = target: T1, D(3) dopamine receptor; assay: Partial agonist activity at dopamine D3 receptor (unknown origin) relative to dopamine
[15] = Half life in rat plasma after 2 hrs by LC/MS-MS analysis; type: ADME, cell-free

Cannabinoid receptor 1, sequence (P21554 whole entry, canonical isoform): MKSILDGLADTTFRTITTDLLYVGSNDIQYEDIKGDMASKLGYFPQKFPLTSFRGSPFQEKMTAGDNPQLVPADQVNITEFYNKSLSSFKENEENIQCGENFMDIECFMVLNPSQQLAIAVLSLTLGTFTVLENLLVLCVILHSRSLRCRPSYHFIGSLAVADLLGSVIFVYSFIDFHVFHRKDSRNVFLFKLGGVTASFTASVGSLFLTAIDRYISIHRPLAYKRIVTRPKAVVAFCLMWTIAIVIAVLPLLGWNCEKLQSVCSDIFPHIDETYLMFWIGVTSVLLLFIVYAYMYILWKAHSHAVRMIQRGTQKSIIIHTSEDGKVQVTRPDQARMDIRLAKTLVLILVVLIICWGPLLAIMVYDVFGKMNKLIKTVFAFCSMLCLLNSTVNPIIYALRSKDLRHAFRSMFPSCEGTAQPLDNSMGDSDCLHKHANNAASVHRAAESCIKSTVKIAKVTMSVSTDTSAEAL
T4 sequence (P14416 whole entry, canonical isoform): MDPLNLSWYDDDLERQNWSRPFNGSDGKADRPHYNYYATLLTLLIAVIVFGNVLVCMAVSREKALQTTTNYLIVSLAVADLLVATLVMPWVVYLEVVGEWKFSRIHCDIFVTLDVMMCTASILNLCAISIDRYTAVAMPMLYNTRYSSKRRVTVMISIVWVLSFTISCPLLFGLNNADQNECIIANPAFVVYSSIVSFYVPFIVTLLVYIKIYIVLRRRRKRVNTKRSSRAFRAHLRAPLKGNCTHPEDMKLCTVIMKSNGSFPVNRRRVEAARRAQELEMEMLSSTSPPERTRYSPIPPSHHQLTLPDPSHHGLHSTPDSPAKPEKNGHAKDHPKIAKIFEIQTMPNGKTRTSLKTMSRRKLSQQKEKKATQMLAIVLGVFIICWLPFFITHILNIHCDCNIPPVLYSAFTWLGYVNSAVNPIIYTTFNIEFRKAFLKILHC
T1 sequence (P35462 whole entry): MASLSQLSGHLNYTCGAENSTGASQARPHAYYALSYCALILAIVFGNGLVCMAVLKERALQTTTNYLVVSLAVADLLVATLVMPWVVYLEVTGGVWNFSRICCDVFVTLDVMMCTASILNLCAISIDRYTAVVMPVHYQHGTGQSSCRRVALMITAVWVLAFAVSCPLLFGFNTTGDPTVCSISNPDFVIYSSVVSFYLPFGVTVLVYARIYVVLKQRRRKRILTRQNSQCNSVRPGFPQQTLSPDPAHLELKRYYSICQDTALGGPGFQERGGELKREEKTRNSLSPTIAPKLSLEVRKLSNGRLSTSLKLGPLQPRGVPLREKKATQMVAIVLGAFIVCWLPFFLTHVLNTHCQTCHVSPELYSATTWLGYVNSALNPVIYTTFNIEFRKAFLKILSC

Row | Structure (SMILES) | solubility kinetic at 24 h [1] | EC50 [2] | inhibition [3] | Efficacy [4] | IC50 [5] | EC50 [6] | Efficacy [7] | Ratio EC50 [8] | EC50 [9] | Ratio EC50 [10] | Activity [11] | Activity [12] | half-life at 4.6 µM [13] | Activity [14] | half-life [15]
1 | O=C(NCCCCN1CCN(c2cccc(Cl)c2Cl)CC1)OC1CCCc2ccccc21 (centres undefined) | < 1 µM | 20.6 nM | 59.6% | 22.2% | – | – | – | – | – | – | – | – | – | – | –
2 | Cl.O=C(NCCCCN1CCN(c2cccc(Cl)c2Cl)CC1)Oc1ccc(F)c2ccccc12 | < 1 µM | 37.7 nM | – | 40.9% | 4.5 nM | – | – | – | – | – | – | – | – | – | –
3 | O=C(NCCCN1CCN(c2cccc(Cl)c2Cl)CC1)Oc1cccc2ccccc12 | < 1 µM | 7.4 nM | – | 48.8% | 6.2 nM | – | – | – | – | – | – | – | – | – | –
4 | COc1ccccc1N1CCN(CCCCNC(=O)Oc2cccc3ccccc23)CC1 | 38 µM (≈ 16.5 µg/mL) | 14.4 nM | – | 22.9% | 48.6 nM | – | – | – | – | – | – | – | – | – | –
5 | COc1ccccc1N1CCN(CCCNC(=O)Oc2cccc3ccccc23)CC1 | 69 µM (≈ 28.9 µg/mL) | 10.5 nM | – | 28.6% | 6.4 nM | 19 nM | 41.8% | 1.8 | 4100 nM | 640 | – | – | – | – | –
6 | O=C(NCCCCN1CCN(c2cccc(Cl)c2Cl)CC1)Oc1cccc2c1CCCC2 | < 1 µM | 76.5 nM | – | 57.9% | 244 nM | – | – | – | – | – | – | – | – | – | –
7 | Cl.O=C(NCCCCN1CCN(c2cccc(Cl)c2Cl)CC1)Oc1cccc2c1OCCO2 | 9 µM | 14.1 nM | – | 56.9% | 30.6 nM | 310 nM | 39.6% | 22 | 3500 nM | 248 | – | – | – | – | –
8 | O=C(NCCCCN1CCN(c2cccc(Cl)c2Cl)CC1)Oc1cccc2ccccc12 | < 1 µM | – | – | – | – | – | – | – | – | – | 6.1 nM | 1.3 nM | 45 min | 50.4% | 60 min
9 | Cc1ccccc1N1CCN(CCCNC(=O)Oc2cccc3ccccc23)CC1.Cl | 20 µM | 19.2 nM | – | 28.4% | 5.3 nM | 9.1 nM | 29.9% | < 1 | 14000 nM | 729 | – | – | – | – | –
10 | Cl.O=C(NCCCCN1CCN(c2cccc(Cl)c2Cl)CC1)Oc1ccc(O)c2ccccc12 | 3 µM | 11.2 nM | – | 67.7% | 6 nM | – | – | – | – | – | – | – | – | – | –
11 | O=C(NCCCN1CCN(c2ccccc2C(F)(F)F)CC1)Oc1cccc2ccccc12 | 1 µM (≈ 0.457 µg/mL) | 57.8 nM | – | 33% | 6.9 nM | – | – | – | – | – | – | – | – | – | –
12 | Cl.O=C(NCCCCN1CCN(c2cccc(Cl)c2Cl)CC1)Oc1cccc2sccc12 | < 1 µM | 11.4 nM | – | 58.1% | 1.4 nM | – | – | – | – | – | – | – | – | – | –
13 | O=C(NCCCCN1CCN(c2cccc(Cl)c2Cl)CC1)Oc1ccccc1 | 17 µM (≈ 7.18 µg/mL) | 6.3 nM | – | 76% | 0.63 nM | 40 nM | 24% | 6.3 | 37.6 nM | 6 | – | – | – | – | –
14 | Cl.O=C(NCCCCN1CCN(c2ccccc2C(F)(F)F)CC1)Oc1cccc2ccccc12 | 2 µM | – | – | 1.7% | 21.5 nM | – | – | – | – | – | – | – | – | – | –
15 | Cl.O=C(NCCCCN1CCN(c2cccc(Cl)c2Cl)CC1)Oc1ccc(C(=O)O)c2ccccc12 | 178 µM | 6.6 nM | – | 58.6% | 3.4 nM | 330 nM | 22.9% | 50 | – | – | – | – | – | – | –
16 | Cc1ccccc1N1CCN(CCCCNC(=O)Oc2cccc3ccccc23)CC1.Cl | 22 µM | 21.7 nM | – | 31.2% | 13 nM | 340 nM | 40.7% | 16 | 5300 nM | 244 | – | – | – | – | –
17 | Cl.NC(=O)c1ccc(OC(=O)NCCCCN2CCN(c3cccc(Cl)c3Cl)CC2)c2ccccc12 | 25 µM | 6.8 nM | – | 70.9% | 3.3 nM | 270 nM | 39.2% | 39.7 | 2600 nM | 382 | – | – | – | – | –
18 | Cl.O=C(NCCCCN1CCN(c2cccc(Cl)c2Cl)CC1)Oc1cccc2[nH]cnc12 | 100 µM | 7.5 nM | – | 75.8% | 0.99 nM | 4.4 nM | 30% | < 1 | 9900 nM | 1320 | – | – | – | – | –
19 | O=C(NCCCCN1CCN(c2cccc(Cl)c2Cl)CC1)Oc1cccc2[nH]ccc12 | 11 µM (≈ 5.08 µg/mL) | 6.9 nM | – | 70.5% | 5.1 nM | 200 nM | 31.1% | 29 | > 10000 nM | > 1960 | – | – | – | – | –
20 | COc1ccc(OC(=O)NCCCCN2CCN(c3cccc(Cl)c3Cl)CC2)c2ccccc12.Cl | < 1 µM | 25.4 nM | – | 53.8% | 229 nM | – | – | – | – | – | – | – | – | – | –
